Assay results: PubChem BioAssay (NCI)
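Where inhibition never reached the appropriate level, the endpoint shown equals the highest concentration tested. Otherwise, values were interpolated linearly from a five-concentration, 48-hour dose response in 96-well plates. TGI: total growth inhibition.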

Legend:
Test in all cases: NCI tumour cell line growth inhibition, 48 h
OVCAR-3 ovarian = test system: OVCAR-3 ovarian
SR leukemia = test system: SR leukemia
MDA-MB-231 breast = test system: MDA-MB-231 breast
CCRF-CEM leukemia = test system: CCRF-CEM leukemia
IGROV1 ovarian = test system: IGROV1 ovarian
MDA-MB-435 = test system: MDA-MB-435
HCT-116 colon = test system: HCT-116 colon
BT-549 breast = test system: BT-549 breast
NCI-H460 lung = test system: NCI-H460 lung
MALME-3M melanoma = test system: MALME-3M melanoma
SF-268 CNS = test system: SF-268 CNS
NCI/ADR-RES ovarian = test system: NCI/ADR-RES ovarian
NCI-H522 lung = test system: NCI-H522 lung
OVCAR-4 ovarian = test system: OVCAR-4 ovarian
SNB-75 CNS = test system: SNB-75 CNS
DU-145 prostate = test system: DU-145 prostate
UO-31 renal = test system: UO-31 renal
OVCAR-8 ovarian = test system: OVCAR-8 ovarian
CAKI-1 renal = test system: CAKI-1 renal
SF-295 CNS = test system: SF-295 CNS
SK-MEL-2 melanoma = test system: SK-MEL-2 melanoma
MDA-N = test system: MDA-N
A549 NSCLC = test system: A549 NSCLC
HS 578T breast = test system: HS 578T breast
786-0 renal = test system: 786-0 renal
SNB-19 CNS = test system: SNB-19 CNS
SK-MEL-28 melanoma = test system: SK-MEL-28 melanoma
KM12 colon = test system: KM12 colon
LOX IMVI melanoma = test system: LOX IMVI melanoma
NCI-H226 lung = test system: NCI-H226 lung
SW-620 colon = test system: SW-620 colon
HOP-62 NSCLC = test system: HOP-62 NSCLC
A498 renal = test system: A498 renal
ACHN renal = test system: ACHN renal
PC-3 prostate = test system: PC-3 prostate
HCC-2998 colon = test system: HCC-2998 colon
UACC-257 melanoma = test system: UACC-257 melanoma
SN12C renal = test system: SN12C renal
MOLT-4 leukemia = test system: MOLT-4 leukemia
T-47D breast = test system: T-47D breast
HT29 colon = test system: HT29 colon
TK-10 renal = test system: TK-10 renal
HCT-15 colon = test system: HCT-15 colon
HOP-92 NSCLC = test system: HOP-92 NSCLC
OVCAR-5 ovarian = test system: OVCAR-5 ovarian
M14 melanoma = test system: M14 melanoma
K-562 leukemia = test system: K-562 leukemia
NCI-H23 lung = test system: NCI-H23 lung
SK-MEL-5 melanoma = test system: SK-MEL-5 melanoma
RXF 393 renal = test system: RXF 393 renal
U251 CNS = test system: U251 CNS
EKVX NSCLC = test system: EKVX NSCLC
UACC-62 melanoma = test system: UACC-62 melanoma
SK-OV-3 ovarian = test system: SK-OV-3 ovarian
SF-539 CNS = test system: SF-539 CNS
MCF7 breast = test system: MCF7 breast
COLO 205 colon = test system: COLO 205 colon
HL-60(TB) leukemia = test system: HL-60(TB) leukemia
RPMI-8226 leukemia = test system: RPMI-8226 leukemia

## CC(C)=CC1C(C(=O)OCc2cc3c(cc2Cl)OCO3)C1(C)C (stereo not given)
OVCAR-3 ovarian
  TGI: > 100 µM
SR leukemia
  TGI: 33.4 µM
MDA-MB-231 breast
  TGI: 86.6 µM
CCRF-CEM leukemia
  TGI: > 100 µM
IGROV1 ovarian
  TGI: 87.5 µM
MDA-MB-435
  TGI: > 100 µM
HCT-116 colon
  TGI: > 100 µM
BT-549 breast
  TGI: > 100 µM
NCI-H460 lung
  TGI: > 100 µM
MALME-3M melanoma
  TGI: 49 µM
SF-268 CNS
  TGI: > 100 µM
NCI/ADR-RES ovarian
  TGI: > 100 µM
NCI-H522 lung
  TGI: 44.2 µM
OVCAR-4 ovarian
  TGI: > 100 µM
SNB-75 CNS
  TGI: > 100 µM
DU-145 prostate
  TGI: > 100 µM
UO-31 renal
  TGI: > 100 µM
OVCAR-8 ovarian
  TGI: > 100 µM
CAKI-1 renal
  TGI: > 100 µM
SF-295 CNS
  TGI: > 100 µM
SK-MEL-2 melanoma
  TGI: 23.1 µM
MDA-N
  TGI: 81.5 µM
A549 NSCLC
  TGI: > 100 µM
HS 578T breast
  TGI: > 100 µM
786-0 renal
  TGI: > 100 µM
SNB-19 CNS
  TGI: > 100 µM
SK-MEL-28 melanoma
  TGI: > 100 µM
KM12 colon
  TGI: > 100 µM
LOX IMVI melanoma
  TGI: 33.5 µM
NCI-H226 lung
  TGI: > 100 µM
SW-620 colon
  TGI: > 100 µM
HOP-62 NSCLC
  TGI: > 100 µM
A498 renal
  TGI: > 100 µM
ACHN renal
  TGI: > 100 µM
PC-3 prostate
  TGI: 36 µM
HCC-2998 colon
  TGI: 58 µM
UACC-257 melanoma
  TGI: 48.1 µM
SN12C renal
  TGI: > 100 µM
MOLT-4 leukemia
  TGI: 31.5 µM
T-47D breast
  TGI: > 100 µM
HT29 colon
  TGI: > 100 µM
TK-10 renal
  TGI: > 100 µM
HCT-15 colon
  TGI: > 100 µM
HOP-92 NSCLC
  TGI: > 100 µM
OVCAR-5 ovarian
  TGI: > 100 µM
M14 melanoma
  TGI: > 100 µM
K-562 leukemia
  TGI: > 100 µM
NCI-H23 lung
  TGI: > 100 µM
SK-MEL-5 melanoma
  TGI: 34.2 µM
RXF 393 renal
  TGI: > 100 µM
U251 CNS
  TGI: 35.1 µM
EKVX NSCLC
  TGI: 80 µM
UACC-62 melanoma
  TGI: > 100 µM

## Cc1cccc2c1nc1n2C(=O)c2ccccc2-1
OVCAR-3 ovarian
  TGI: > 100 µM
SR leukemia
  TGI: > 100 µM
CCRF-CEM leukemia
  TGI: > 100 µM
IGROV1 ovarian
  TGI: > 100 µM
HCT-116 colon
  TGI: > 100 µM
BT-549 breast
  TGI: > 100 µM
NCI-H460 lung
  TGI: > 100 µM
MALME-3M melanoma
  TGI: > 100 µM
SF-268 CNS
  TGI: > 100 µM
SK-OV-3 ovarian
  TGI: > 100 µM
SF-539 CNS
  TGI: > 100 µM
NCI/ADR-RES ovarian
  TGI: > 100 µM
MCF7 breast
  TGI: > 100 µM
NCI-H522 lung
  TGI: > 100 µM
OVCAR-4 ovarian
  TGI: > 100 µM
SNB-75 CNS
  TGI: > 100 µM
DU-145 prostate
  TGI: > 100 µM
UO-31 renal
  TGI: > 100 µM
OVCAR-8 ovarian
  TGI: > 100 µM
CAKI-1 renal
  TGI: > 100 µM
SF-295 CNS
  TGI: > 100 µM
SK-MEL-2 melanoma
  TGI: > 100 µM
COLO 205 colon
  TGI: > 100 µM
MDA-N
  TGI: > 100 µM
A549 NSCLC
  TGI: > 100 µM
HL-60(TB) leukemia
  TGI: > 100 µM
786-0 renal
  TGI: > 100 µM
SNB-19 CNS
  TGI: > 100 µM
SK-MEL-28 melanoma
  TGI: > 100 µM
KM12 colon
  TGI: > 100 µM
NCI-H226 lung
  TGI: > 100 µM
SW-620 colon
  TGI: > 100 µM
ACHN renal
  TGI: > 100 µM
PC-3 prostate
  TGI: > 100 µM
HCC-2998 colon
  TGI: > 100 µM
UACC-257 melanoma
  TGI: > 100 µM
SN12C renal
  TGI: > 100 µM
MOLT-4 leukemia
  TGI: > 100 µM
HT29 colon
  TGI: > 100 µM
TK-10 renal
  TGI: > 100 µM
HCT-15 colon
  TGI: > 100 µM
HOP-92 NSCLC
  TGI: > 100 µM
OVCAR-5 ovarian
  TGI: > 100 µM
M14 melanoma
  TGI: > 100 µM
K-562 leukemia
  TGI: > 100 µM
NCI-H23 lung
  TGI: > 100 µM
SK-MEL-5 melanoma
  TGI: > 100 µM
RXF 393 renal
  TGI: > 100 µM
U251 CNS
  TGI: > 100 µM
EKVX NSCLC
  TGI: > 100 µM
UACC-62 melanoma
  TGI: > 100 µM
RPMI-8226 leukemia
  TGI: > 100 µM
